Literature values, collected in patent US5691376A, “Substituted biphenyl derivatives” (American Home Products Corporation, priority 1996, dated 1997).

Assays:
murine T-cell = settings: Strauch 1989; cited from earlier work
[1] = test system: humoral (IgE-like) antibodies; settings: albumin allergic challenge; Martel 1977; cited from earlier work

For `CO[C@H]1C[C@@H]2CC[C@@H](C)[C@@](O)(O2)C(=O)C(=O)N2CCCC[C@H]2C(=O)O[C@H]([C@H](C)C[C@@H]2CC[C@@H](O)[C@H](OC)C2)CC(=O)[C@H](C)/C=C(\C)[C@@H](O)[C@@H](OC)C(=O)[C@H](C)C[C@H](C)/C=C/C=C/C=C/1C` [Rapamycin], the “inhibition of T-cell activation” value (murine T-cell) is listed as “inhibit murine T-cell activation” and the “prevention of formation of humoral (IgE-like) antibodies” value [1] is listed as “prevent the formation of humoral (IgE-like) antibodies in response to an albumin allergic challenge”.
